Experimental data taken from US10233173B2, “Substituted 1,2,3-triazoles as NR2B-selective NMDA modulators” (JANSSEN PHARMACEUTICA NV, priority 2016, dated 2019).

Target: human GluN1/GluN2B NMDA receptors (Homo sapiens, UniProt Q05586+Q13224)
Assay: Cell-based calcium flux (FLIPR) assay on cloned human NR1/NR2B ion channels expressed in mammalian cells
Conditions: standard assay; glutamate at ~EC80; FLIPR calcium flux
How it was run: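 Calcium influx followed by FLIPR fluorescence after 5 min compound exposure and a further 5 min co-agonist challenge: 10 μM glycine with glutamate at ~EC80 (standard) or EC40 (HTS).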

Sequence of human GluN1/GluN2B NMDA receptors (Q13224 27-1484, other chains not shown): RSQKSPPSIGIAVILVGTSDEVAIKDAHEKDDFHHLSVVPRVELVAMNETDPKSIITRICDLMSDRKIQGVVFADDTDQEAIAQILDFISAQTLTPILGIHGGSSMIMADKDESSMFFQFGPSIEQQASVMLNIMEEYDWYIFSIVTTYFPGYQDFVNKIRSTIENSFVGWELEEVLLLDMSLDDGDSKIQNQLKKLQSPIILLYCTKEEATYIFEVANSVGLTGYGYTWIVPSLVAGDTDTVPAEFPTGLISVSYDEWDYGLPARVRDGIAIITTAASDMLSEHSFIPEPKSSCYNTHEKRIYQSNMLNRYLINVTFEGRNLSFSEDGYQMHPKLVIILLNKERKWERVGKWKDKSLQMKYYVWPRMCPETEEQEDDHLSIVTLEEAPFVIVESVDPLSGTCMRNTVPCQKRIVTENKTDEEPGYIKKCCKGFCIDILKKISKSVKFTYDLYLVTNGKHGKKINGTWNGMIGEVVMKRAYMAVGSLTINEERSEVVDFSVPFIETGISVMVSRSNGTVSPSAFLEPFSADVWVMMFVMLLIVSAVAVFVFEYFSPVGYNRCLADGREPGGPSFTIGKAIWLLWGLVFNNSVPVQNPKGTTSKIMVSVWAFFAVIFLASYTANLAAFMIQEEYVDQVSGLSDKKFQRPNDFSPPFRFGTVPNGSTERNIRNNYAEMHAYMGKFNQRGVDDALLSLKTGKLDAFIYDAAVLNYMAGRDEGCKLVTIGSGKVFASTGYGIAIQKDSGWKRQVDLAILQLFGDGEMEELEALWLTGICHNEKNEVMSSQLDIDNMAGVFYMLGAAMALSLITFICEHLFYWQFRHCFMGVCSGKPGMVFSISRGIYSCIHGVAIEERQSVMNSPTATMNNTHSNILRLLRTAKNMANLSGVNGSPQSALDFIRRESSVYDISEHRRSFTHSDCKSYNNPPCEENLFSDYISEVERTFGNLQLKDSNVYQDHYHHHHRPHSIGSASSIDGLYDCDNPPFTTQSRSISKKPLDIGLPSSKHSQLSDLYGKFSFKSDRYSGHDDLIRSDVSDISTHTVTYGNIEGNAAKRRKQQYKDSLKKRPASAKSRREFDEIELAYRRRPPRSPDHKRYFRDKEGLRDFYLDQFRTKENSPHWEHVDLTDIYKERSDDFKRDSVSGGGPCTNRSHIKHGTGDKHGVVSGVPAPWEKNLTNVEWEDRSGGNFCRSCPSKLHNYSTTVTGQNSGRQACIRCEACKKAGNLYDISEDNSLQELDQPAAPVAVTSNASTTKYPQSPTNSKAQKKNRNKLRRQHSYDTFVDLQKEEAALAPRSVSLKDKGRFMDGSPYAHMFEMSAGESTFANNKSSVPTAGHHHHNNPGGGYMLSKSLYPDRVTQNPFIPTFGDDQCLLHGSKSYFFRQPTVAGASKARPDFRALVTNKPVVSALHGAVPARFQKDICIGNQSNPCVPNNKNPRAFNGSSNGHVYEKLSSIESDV

Compound | IC50
Fc1ccc(-n2cc(COc3ncc(Cl)cn3)nn2)cc1F [Example 600, 5-Chloro-2-[[1-(3,4-difluorophenyl)triazol-4-yl]methoxy]pyrimidine] | 0.238 µM
Cc1c(F)ccc(-n2cc(COc3ncc(C(F)(F)F)cn3)nn2)c1F [Example 643, 2-[[1-(2,4-Difluoro-3-methyl-phenyl)triazol-4-yl]methoxy]-5-(trifluoromethyl)pyrimidine] | 0.2 µM
CCc1cnc(OCc2cn(-c3cc(C)c(F)cc3F)nn2)nc1 [Example 655, 2-[[1-(2,4-Difluoro-5-methyl-phenyl)triazol-4-yl]methoxy]-5-ethyl-pyrimidine] | 0.507 µM
CC(F)(F)c1cc(-n2cc(COc3nccc(C(F)(F)F)n3)nn2)ccc1F [Example 564, 2-[[1-[3-(1,1-Difluoroethyl)-4-fluoro-phenyl]triazol-4-yl]methoxy]-4-(trifluoromethyl)pyrimidine] | 0.272 µM
CC(F)(F)c1cc(-n2cc(COc3nccc(C(F)F)n3)nn2)ccc1Cl [Example 536, 2-[[1-[4-Chloro-3-(1,1-difluoroethyl)phenyl]triazol-4-yl]methoxy]-4-(difluoromethyl)pyrimidine] | 0.067 µM
Cc1ccc(-n2cc(COc3ncc(Br)cn3)nn2)cc1OC(F)F [Example 525, 5-Bromo-2-[[1-[3-(difluoromethoxy)-4-methyl-phenyl]triazol-4-yl]methoxy]pyrimidine] | 0.04 µM
Cc1cc(-n2cc(COc3ncc(Cl)cn3)nn2)c(F)cc1F [Example 653, 5-Chloro-2-[[1-(2,4-difluoro-5-methyl-phenyl)triazol-4-yl]methoxy]pyrimidine] | 1.49 µM
Cc1ccc(-n2cc(COc3ncc(C(C)(C)O)cn3)nn2)cc1OC(F)F [Example 526, 2-[2-[[1-[3-(Difluoromethoxy)-4-methyl-phenyl]triazol-4-yl]methoxy]pyrimidin-5-yl]propan-2-ol] | 0.425 µM
Cc1c(F)ccc(-n2cc(COc3ncc(OC(F)F)cn3)nn2)c1F [Example 646, 5-(Difluoromethoxy)-2-[[1-(2,4-difluoro-3-methyl-phenyl)triazol-4-yl]methoxy]pyrimidine] | 0.099 µM
COc1cnc(OCc2cn(-c3ccc(C(F)(F)F)s3)nn2)nc1 [Example 669, 5-Methoxy-2-((1-(5-(trifluoromethyl)thiophen-2-yl)-1H-1,2,3-triazol-4-yl)methoxy)pyrimidine] | 0.004 µM
Cc1ccnc(OCc2cn(-c3ccc(C)c(OC(F)F)c3)nn2)n1 [Example 523, 2-[[1-[3-(Difluoromethoxy)-4-methyl-phenyl]triazol-4-yl]methoxy]-4-methyl-pyrimidine] | 0.114 µM
Cc1cnc(OCc2cn(-c3ccc(F)c(Cl)c3)nn2)nc1 [Example 620, 2-[[1-(3-Chloro-4-fluoro-phenyl)triazol-4-yl]methoxy]-5-methyl-pyrimidine] | 0.008 µM

Same assay, conditions: standard assay; human GluN1/GluN2B, calcium flux (FLIPR), glutamate ~EC80

Compound | IC50
COc1ccnc(OCc2cn(-c3ccc(Cl)c(OC(F)F)c3)nn2)n1 [Example 29, 2-[[1-[4-Chloro-3-(difluoromethoxy)phenyl]triazol-4-yl]methoxy]-4-methoxy-pyrimidine] | 0.011 µM
Cc1ccnc(NCc2cn(-c3ccc(Cl)c(C(F)F)c3)nn2)n1 [Example 201, N-[[1-[4-Chloro-3-(difluoromethyl)phenyl]triazol-4-yl]methyl]-4-methyl-pyrimidin-2-amine] | 0.1 µM
Cc1cnc(NCc2cn(-c3ccc(F)c(OC(F)F)c3)nn2)nc1 [Example 222, N-((1-(3-(Difluoromethoxy)-4-fluorophenyl)-1H-1,2,3-triazol-4-yl)methyl)-5-methylpyrimidin-2-amine] | 0.064 µM
COc1cnc(OCc2cn(-c3ccc(C)cc3)nn2)nc1 [Example 258, 5-Methoxy-2-[[1-(p-tolyl)triazol-4-yl]methoxy]pyrimidine] | 0.225 µM
Cn1ccnc1NCc1cn(-c2ccc(F)c(C(F)F)c2)nn1 [Example 220, N-((1-(3-(Difluoromethyl)-4-fluorophenyl)-1H-1,2,3-triazol-4-yl)methyl)-1-methyl-1H-imidazol-2-amine] | 3.65 µM
Fc1ccc(-n2cc(COc3nccc(N4CCC(F)(F)C4)n3)nn2)cc1OC(F)F [Example 166, 2-[[1-[3-(Difluoromethoxy)-4-fluoro-phenyl]triazol-4-yl]methoxy]-4-(3,3-difluoropyrrolidin-1-yl)pyrimidine] | 0.144 µM
Cn1ccc(NCc2cn(-c3ccc(F)c(OC(F)F)c3)nn2)n1 [Example 101, N-[[1-[3-(Difluoromethoxy)-4-fluoro-phenyl]triazol-4-yl]methyl]-1-methyl-pyrazol-3-amine] | 0.374 µM
FC(F)c1cc(-n2cc(COc3ncccn3)nn2)ccc1Cl [Example 1, 2-((1-(4-Chloro-3-(difluoromethyl)phenyl)-1H-1,2,3-triazol-4-yl)methoxy)pyrimidine] | 0.049 µM
Cc1ccc(-n2cc(COc3ncc(Cl)cn3)nn2)cc1 [Example 259, 5-Chloro-2-[[1-(p-tolyl)triazol-4-yl]methoxy]pyrimidine] | 0.711 µM
CC(C)c1cnc(OCc2cn(-c3ccc(F)c(C(F)(F)F)c3)nn2)nc1 [Example 75, 2-[[1-[4-Fluoro-3-(trifluoromethyl)phenyl]triazol-4-yl]methoxy]-5-isopropyl-pyrimidine] | 0.026 µM
Cc1ccnc(OCc2cn(-c3ccc(F)c(C(F)F)c3)nn2)n1 [Example 52, 2-[[1-[3-(Difluoromethyl)-4-fluoro-phenyl]triazol-4-yl]methoxy]-4-methyl-pyrimidine] | 0.008 µM
FC(F)Oc1cc(-n2cc(COc3ncc(Cl)cn3)nn2)ccc1Cl [Example 28, 5-Chloro-2-[[1-[4-chloro-3-(difluoromethoxy)phenyl]triazol-4-yl]methoxy]pyrimidine] | 0.002 µM
Fc1cnc(OCc2cn(-c3ccc4c(c3)OC(F)(F)O4)nn2)nc1 [Example 358, 2-[[1-(2,2-Difluoro-1,3-benzodioxol-5-yl)triazol-4-yl]methoxy]-5-fluoro-pyrimidine] | 0.726 µM
CN(C)c1ccnc(OCc2cn(-c3cccc(C(F)F)c3)nn2)n1 [Example 277, 2-[[1-[3-(Difluoromethyl)phenyl]triazol-4-yl]methoxy]-N,N-dimethyl-pyrimidin-4-amine] | 0.041 µM
Cc1ccnc(OCc2cn(-c3ccc(F)c(OC(F)F)c3)nn2)c1 [Example 116, 2-[[1-[3-(Difluoromethoxy)-4-fluoro-phenyl]triazol-4-yl]methoxy]-4-methyl-pyridine] | 0.102 µM
CCc1cnc(NCc2cn(-c3ccc(F)c(C(F)F)c3)nn2)nc1 [Example 216, N-((1-(3-(Difluoromethyl)-4-fluorophenyl)-1H-1,2,3-triazol-4-yl)methyl)-5-ethylpyrimidin-2-amine] | 0.026 µM

Compound | IC50
Cc1cnc(OCc2cn(-c3cccc(OC(F)F)c3)nn2)nc1 [Example 327, 2-[[1-[3-(Difluoromethoxy)phenyl]triazol-4-yl]methoxy]-5-methyl-pyrimidine] | 0.015 µM
CC(F)(F)c1cccc(-n2cc(COc3nccc(CO)n3)nn2)c1 [Example 299, [2-[[1-[3-(1,1-Difluoroethyl)phenyl]triazol-4-yl]methoxy]pyrimidin-4-yl]methanol] | 0.049 µM
Fc1ccc(-n2cc(COc3ncc(Cl)cn3)nn2)cc1C(F)F [Example 49, 5-Chloro-2-[[1-[3-(difluoromethyl)-4-fluoro-phenyl]triazol-4-yl]methoxy]pyrimidine] | 0.003 µM
Nc1nc(OCc2cn(-c3ccc(Cl)c(OC(F)F)c3)nn2)ncc1F [Example 390, 2-((1-(4-Chloro-3-(difluoromethoxy)phenyl)-1H-1,2,3-triazol-4-yl)methoxy)-5-fluoropyrimidin-4-amine] | 0.006 µM
CCc1cnc(OCc2cn(-c3cccc(C)c3)nn2)nc1 [Example 245, 5-Ethyl-2-[[1-(m-tolyl)triazol-4-yl]methoxy]pyrimidine] | 0.01 µM
FC(F)c1cnc(OCc2cn(-c3cccc(C(F)(F)F)c3)nn2)nc1 [Example 289, 5-(Difluoromethyl)-2-[[1-[3-(trifluoromethyl)phenyl]triazol-4-yl]methoxy]pyrimidine] | 0.037 µM
Cn1ccnc1NCc1cn(-c2ccc(F)c(OC(F)F)c2)nn1 [Example 7, N-[[1-[3-(Difluoromethoxy)-4-fluoro-phenyl]triazol-4-yl]methyl]-1-methyl-imidazol-2-amine] | 1.87 µM
CC(C)Oc1ccnc(OCc2cn(-c3ccc(Cl)c(OC(F)F)c3)nn2)n1 [Example 386, 2-((1-(4-Chloro-3-(difluoromethoxy)phenyl)-1H-1,2,3-triazol-4-yl)methoxy)-4-isopropoxypyrimidine] | 0.504 µM
Fc1ccc(-n2cc(COc3ncccn3)nn2)cc1Br [Example 9, 2-[[1-(3-Bromo-4-fluoro-phenyl)triazol-4-yl]methoxy]pyrimidine] | 0.02 µM
CC(C)c1cccc(-n2cc(COc3ncccn3)nn2)c1 [Example 262, 2-[[1-(3-Isopropylphenyl)triazol-4-yl]methoxy]pyrimidine] | 0.358 µM
Fc1cnc(OCc2cn(-c3ccc(F)c(Br)c3)nn2)nc1 [Example 19, 2-[[1-(3-Bromo-4-fluoro-phenyl)triazol-4-yl]methoxy]-5-fluoropyrimidine] | 0.056 µM
Cc1cnc(OCc2cn(-c3cccc(C(F)F)c3)nn2)nc1N [Example 161, 2-[[1-[3-(Difluoromethyl)phenyl]triazol-4-yl]methoxy]-5-methyl-pyrimidin-4-amine] | 0.055 µM
FC(F)Oc1cc(-n2cc(COc3nccc(Cl)n3)nn2)ccc1Cl [Example 190, 4-Chloro-2-[[1-[4-chloro-3-(difluoromethoxy)phenyl]triazol-4-yl]methoxy]pyrimidine] | 0.026 µM
COc1cnc(OCc2cn(-c3ccc(Cl)c(OC)c3)nn2)nc1 [Example 87] | 0.012 µM
FC(F)Oc1cnc(OCc2cn(-c3ccc(Cl)cc3)nn2)nc1 [Example 227, 2-[[1-(4-Chlorophenyl)triazol-4-yl]methoxy]-5-(difluoromethoxy)pyrimidine] | 0.151 µM
